Experimental data reported in publication PMC8351594, “Design of Novel Amphipathic α-Helical Antimicrobial Peptides with No Toxicity as Therapeutics against the Antibiotic-Resistant Gram-Negative Bacterial Pathogen, Acinetobacter Baumannii” (Journal of medicinal chemistry and drug design, 2019).
Converted amounts (≈) assume the structure as drawn. Square brackets hold non-standard residues; d marks the D form. Peptide text beside a SMILES is read from it. Dab = NCC[C@H](N)C(=O)O; Dap = NC[C@H](N)C(=O)O

Legend:
Details in all cases: Mueller-Hinton medium, 37°C, 24 h, inoculum 5 × 10^5 CFU/mL; MIC based on three sets of determinations
[1] = system: Acinetobacter baumannii MB9951
Experimental: (§1) The A. baumannii strains used in this study consisted of seven strains resistant to Polymyxin B and Colistin (antibiotics of last resort) obtained from MERCK (M89941, M89949, M89951, M89952, M89953, M89955 and M89963). The MICGM in this case is the geometric mean MIC from the seven Acinetobacter baumannii strains used in this study.
(§2) The minimal inhibitory concentration (MIC) is defined as the lowest peptide concentration that inhibited bacterial growth. MICs were measured by a standard microtiter dilution method in Mueller Hinton (MH) medium. Briefly, cells were grown overnight at 37°C in MH broth and were diluted in the same medium. […] The plates were incubated at 37°C for 24h, and the MICs were determined. The MICGM is the geometric mean of the number of MIC values.

[2] = system: Acinetobacter baumannii MB9963
Experimental: as §1, §2

[3] = system: Acinetobacter baumannii MB9953
Experimental: as §1, §2

[4] = system: Acinetobacter baumannii MB9949
Experimental: as §1, §2

[5] = system: Acinetobacter baumannii MB9941
Experimental: as §1, §2

[6] = system: Acinetobacter baumannii MB9955
Experimental: as §1, §2

[7] = system: Acinetobacter baumannii MB9952
Experimental: as §1, §2

Row | Compound | MIC MB9951 [1] [µM] | MIC MB9963 [2] [µM] | MIC MB9953 [3] [µM] | MIC MB9949 [4] [µM] | MIC MB9941 [5] [µM] | MIC MB9955 [6] [µM] | MIC MB9952 [7] [µM]
1 | CC(=O)N[C@H](CCCCN)C(=O)N[C@H](CC(C)C)C(=O)N[C@@H](CN)C(=O)N[C@H](CO)C(=O)N[C@H](CC(C)C)C(=O)N[C@H](CC(C)C)C(=O)N[C@@H](CN)C(=O)N[C@@H](C(=O)N[C@H](CC(C)C)C(=O)N[C@H](CO)C(=O)N[C@H](C)C(=O)N[C@H](C)C(=O)N[C@H](CCCCN)C(=O)N[C@@H](CN)C(=O)N[C@@H](CN)C(=O)N[C@H](CCCCN)C(=O)N[C@H](CC(C)C)C(=O)N[C@H](C)C(=O)N[C@@H](C(=O)N[C@H](CC(C)C)C(=O)N[C@H](CC(C)C)C(=O)N[C@@H](CN)C(=O)N[C@H](C)C(=O)N[C@H](CC(C)C)C(=O)N[C@H](CO)C(=O)N[C@@H](CN)C(N)=O)[C@H](C)O)[C@H](C)O [D106(Lys^1-6 Dap-2)] (Ac-[dK][dL][Dap][dS][dL][dL][Dap][dT][dL][dS][dA][dA][dK][Dap][Dap][dK][dL][dA][dT][dL][dL][Dap][dA][dL][dS][Dap]-NH2) | 1.5 (≈ 3.92 µg/mL) | 0.8 (≈ 2.09 µg/mL) | 0.8 (≈ 2.09 µg/mL) | 0.8 (≈ 2.09 µg/mL) | 0.8 (≈ 2.09 µg/mL) | 0.4 (≈ 1.05 µg/mL) | 0.8 (≈ 2.09 µg/mL)
2 | CC(=O)N[C@H](CCCCN)C(=O)N[C@H](CC(C)C)C(=O)N[C@@H](CCN)C(=O)N[C@H](CO)C(=O)N[C@H](CC(C)C)C(=O)N[C@H](CC(C)C)C(=O)N[C@@H](CCN)C(=O)N[C@@H](C(=O)N[C@H](CC(C)C)C(=O)N[C@H](CO)C(=O)N[C@H](C)C(=O)N[C@H](C)C(=O)N[C@H](CCCCN)C(=O)N[C@@H](CCN)C(=O)N[C@@H](CCN)C(=O)N[C@H](CCCCN)C(=O)N[C@H](CC(C)C)C(=O)N[C@H](C)C(=O)N[C@@H](C(=O)N[C@H](CC(C)C)C(=O)N[C@H](CC(C)C)C(=O)N[C@@H](CCN)C(=O)N[C@H](C)C(=O)N[C@H](CC(C)C)C(=O)N[C@H](CO)C(=O)N[C@@H](CCN)C(N)=O)[C@H](C)O)[C@H](C)O [D89(Lys^1-6 Dab-2)] (Ac-[dK][dL][Dab][dS][dL][dL][Dab][dT][dL][dS][dA][dA][dK][Dab][Dab][dK][dL][dA][dT][dL][dL][Dab][dA][dL][dS][Dab]-NH2) | 0.7 (≈ 1.89 µg/mL) | 0.7 (≈ 1.89 µg/mL) | 0.7 (≈ 1.89 µg/mL) | 0.7 (≈ 1.89 µg/mL) | 0.7 (≈ 1.89 µg/mL) | 0.7 (≈ 1.89 µg/mL) | 0.7 (≈ 1.89 µg/mL)
3 | CC(=O)N[C@H](CCCCN)C(=O)N[C@H](CC(C)C)C(=O)N[C@@H](CCN)C(=O)N[C@H](CO)C(=O)N[C@H](CC(C)C)C(=O)N[C@H](CC(C)C)C(=O)N[C@@H](CCN)C(=O)N[C@@H](C(=O)N[C@H](CC(C)C)C(=O)N[C@H](CO)C(=O)N[C@@H](CCN)C(=O)N[C@H](C)C(=O)N[C@H](CCCCN)C(=O)N[C@H](C)C(=O)N[C@H](C)C(=O)N[C@H](CCCCN)C(=O)N[C@H](CC(C)C)C(=O)N[C@@H](CCN)C(=O)N[C@@H](C(=O)N[C@H](CC(C)C)C(=O)N[C@H](CC(C)C)C(=O)N[C@@H](CCN)C(=O)N[C@H](C)C(=O)N[C@H](CC(C)C)C(=O)N[C@H](CO)C(=O)N[C@@H](CCN)C(N)=O)[C@H](C)O)[C@H](C)O [D86(Lys^1-6 Dab-1)] (Ac-[dK][dL][Dab][dS][dL][dL][Dab][dT][dL][dS][Dab][dA][dK][dA][dA][dK][dL][Dab][dT][dL][dL][Dab][dA][dL][dS][Dab]-NH2) | 0.8 (≈ 2.16 µg/mL) | 0.8 (≈ 2.16 µg/mL) | 0.8 (≈ 2.16 µg/mL) | 0.8 (≈ 2.16 µg/mL) | 1.5 (≈ 4.05 µg/mL) | 0.8 (≈ 2.16 µg/mL) | 0.8 (≈ 2.16 µg/mL)
4 | CC(=O)N[C@H](CCCCN)C(=O)N[C@H](CC(C)C)C(=O)N[C@H](CCCCN)C(=O)N[C@H](CO)C(=O)N[C@H](CC(C)C)C(=O)N[C@H](CC(C)C)C(=O)N[C@H](CCCCN)C(=O)N[C@@H](C(=O)N[C@H](CC(C)C)C(=O)N[C@H](CO)C(=O)N[C@H](CCCCN)C(=O)N[C@H](C)C(=O)N[C@H](CCCCN)C(=O)N[C@H](C)C(=O)N[C@H](C)C(=O)N[C@H](CCCCN)C(=O)N[C@H](CC(C)C)C(=O)N[C@H](CCCCN)C(=O)N[C@@H](C(=O)N[C@H](CC(C)C)C(=O)N[C@H](CC(C)C)C(=O)N[C@H](CCCCN)C(=O)N[C@H](C)C(=O)N[C@H](CC(C)C)C(=O)N[C@H](CO)C(=O)N[C@H](CCCCN)C(N)=O)[C@H](C)O)[C@H](C)O [D84(Lys^1-6 Lys-1)] (Ac-[dK][dL][dK][dS][dL][dL][dK][dT][dL][dS][dK][dA][dK][dA][dA][dK][dL][dK][dT][dL][dL][dK][dA][dL][dS][dK]-NH2) | 0.3 (≈ 0.86 µg/mL) | 0.7 (≈ 2.01 µg/mL) | 0.7 (≈ 2.01 µg/mL) | 0.7 (≈ 2.01 µg/mL) | 0.3 (≈ 0.86 µg/mL) | 0.3 (≈ 0.86 µg/mL) | 0.7 (≈ 2.01 µg/mL)
5 | CC(=O)N[C@H](CCCCN)C(=O)N[C@H](CC(C)C)C(=O)N[C@H](CCCCN)C(=O)N[C@H](CO)C(=O)N[C@H](CC(C)C)C(=O)N[C@H](CC(C)C)C(=O)N[C@H](CCCCN)C(=O)N[C@@H](C(=O)N[C@H](CC(C)C)C(=O)N[C@H](CO)C(=O)N[C@H](CCCCN)C(=O)N[C@H](C)C(=O)N[C@H](CCCCN)C(=O)N[C@H](C)C(=O)N[C@H](C)C(=O)N[C@H](CCCCN)C(=O)N[C@H](CC(C)C)C(=O)N[C@H](CCCCN)C(=O)N[C@@H](C(=O)N[C@H](CC(C)C)C(=O)N[C@H](CC(C)C)C(=O)N[C@H](CCCCN)C(=O)N[C@H](C)C(=O)N[C@H](CC(C)C)C(=O)N[C@H](CO)C(=O)N[C@H](CO)C(N)=O)[C@H](C)O)[C@H](C)O [D101(Lys^1Ser^26-5 Lys-1)] (Ac-[dK][dL][dK][dS][dL][dL][dK][dT][dL][dS][dK][dA][dK][dA][dA][dK][dL][dK][dT][dL][dL][dK][dA][dL][dS][dS]-NH2) | 0.7 (≈ 1.98 µg/mL) | 0.7 (≈ 1.98 µg/mL) | 1.5 (≈ 4.24 µg/mL) | 0.7 (≈ 1.98 µg/mL) | 0.7 (≈ 1.98 µg/mL) | 0.7 (≈ 1.98 µg/mL) | 0.7 (≈ 1.98 µg/mL)
6 | CC(=O)N[C@H](CCCCN)C(=O)N[C@H](CC(C)C)C(=O)N[C@@H](CCN)C(=O)N[C@H](CO)C(=O)N[C@H](CC(C)C)C(=O)N[C@H](CC(C)C)C(=O)N[C@@H](CCN)C(=O)N[C@@H](C(=O)N[C@H](CC(C)C)C(=O)N[C@H](CO)C(=O)N[C@H](C)C(=O)N[C@H](C)C(=O)N[C@H](CCCCN)C(=O)N[C@@H](CCN)C(=O)N[C@@H](CCN)C(=O)N[C@H](CCCCN)C(=O)N[C@H](CC(C)C)C(=O)N[C@H](C)C(=O)N[C@@H](C(=O)N[C@H](CC(C)C)C(=O)N[C@H](CC(C)C)C(=O)N[C@@H](CCN)C(=O)N[C@H](C)C(=O)N[C@H](CC(C)C)C(=O)N[C@H](CO)C(=O)N[C@H](CO)C(N)=O)[C@H](C)O)[C@H](C)O [D104(Lys^1Ser^26-5 Dab-2)] (Ac-[dK][dL][Dab][dS][dL][dL][Dab][dT][dL][dS][dA][dA][dK][Dab][Dab][dK][dL][dA][dT][dL][dL][Dab][dA][dL][dS][dS]-NH2) | 0.7 (≈ 1.88 µg/mL) | 0.7 (≈ 1.88 µg/mL) | 1.5 (≈ 4.03 µg/mL) | 0.7 (≈ 1.88 µg/mL) | 0.7 (≈ 1.88 µg/mL) | 0.7 (≈ 1.88 µg/mL) | 0.7 (≈ 1.88 µg/mL)
